# Assays:
# B16.BL6 melanoma cells [1] = experiment: Cell concentration and viability after conjugation, trypan blue (Example 14); type: cell-based
# Procedure: (§1) Nine flasks (300 cm^2) (TPP, Trasadingen Switzerland) of confluent B16.BL6 melanoma cells grown in DMEM containing 10% fetal calf serum (without P/S) at 37.5° C. in 5% CO2 were used for this experiment. Growth medium was removed from the cells and 20 mL of HBSS containing D-glucose (without Mg^2+ and Ca^2+) (Gibco, Invitrogen, Taastrup, Denmark) was added to the cells and immediately removed again. Another 10 mL of HBSS containing D-glucose (without Mg^2+ and Ca^2+) was added and removed, before cells were harvested with Cell Dissociation Solution C5914 (Sigma-aldrich, Saint Louis, Mo.) (10 mL per flask) and transferred to 50 mL tubes (TPP, Trasadingen Switzerland). The cells were centrifuged for 3 minutes at 300 G at 20° C. and the supernatant was discarded. Subsequently, cells were washed twice in HBSS containing D-glucose (without Mg^2+ and Ca^2+), centrifuged as above and resuspended in HBSS containing D-glucose (without Mg^2+ and Ca^2+). The concentration of the cell suspension was determined.
# Radioactive labelled and regular trisaccharide probe was dissolved in HBSS containing D-glucose (without Mg^2+ and Ca^2+) (Gibco Invitrogen, Taastrup, Denmark) and passed through sterile filters (0.2 μm Supor® Acrodisc® 13, Gelman Sciences, Ann Arbor, Mich.). Four different concentrations of each “Glycom conjugate” (25 mg, 5 mg, 1 mg and 0.1 mg) were made. Twelve flasks (150 cm^2) (TPP, Trasadingen Switzerland) were prepared each containing a total of 10×10^6 B16.BL6 cells. The trisaccharide probe was added and the total volume was adjusted to 20 mL with HBSS containing D-glucose (without Mg^2+ and Ca^2+). The cells were incubated with the “Glycom conjugate” for 1.5 hours at 37° C. After conjugation, the supernatant from each flask was transferred to separate 50 mL tubes (TPP, Trasadingen Switzerland). The cells were harvested with Cell Dissociation Solution C5914 (5 mL per flask) (Sigma-Aldrich, Saint Louis, Mo. and transferred to the 50 mL tubes containing the supernatant. The cells were centrifuged for 3 minutes at 300 G at 20° C. and resuspended in 5 mL of PBS (without Mg^2+ and Ca^2+). This was repeated 3 times before cell concentration and viability was determined by microscopical evaluation of trypan blue stained cell samples.
# B16.BL6 melanoma cells [2] = experiment: Cell concentration and viability after conjugation, trypan blue (Example 15); type: cell-based
# Procedure: as §1, with “Twelve flasks” for “Nine flasks”, “CO2 was” for “CO2 were”
# Radioactive labelled and regular alpha-Gal trisaccharide-carbamate (9) probe (labeled on the cyclic carbamate carbon) was dissolved in HBSS containing D-glucose (without Mg^2+ and Ca^2+) (Gibco Invitrogen, Taastrup, Denmark) and passed through sterile filters (0.2 μm Supor® Acrodisc® 13, Gelman Sciences, Ann Arbor, Mich.). Eight different concentrations of radioactive labelled alpha-Gal trisaccharide-carbamate (9) (1 μg, 10 μg, 100 μg, 1 mg, 5 mg, 10 mg, 15 mg and 20 mg) and […] concentrations of regular “Glycom conjugate” (10 μg, 100 μg, 1 mg, 5 mg, 10 mg, 15 mg and 20 mg) were used. Twelve flasks (300 cm^2) (TPP, Trasadingen Switzerland) were prepared, each containing 10×10^6 B16.BL6 cells, for conjugation with the radioactive labelled trisaccharide probe, and 8 flasks (150 cm^2) (TPP, Trasadingen Switzerland) were prepared, each containing 5×10^6 B16.BL6 cells, for conjugation with the non-radioactive conjugate. The Glycom conjugate was added and the total volume was adjusted with HBSS containing D-glucose (without Mg^2+ and Ca^2+) so that each large flask (300 cm^2) contained a final volume of 20 mL and each medium flask (150 cm^2) contained a final volume of 10 mL. Cells were incubated with the “Glycom conjugate” for 1.5 hours at 37° C. After conjugation, the supernatant from each flask was transferred to separate 50 mL tubes (TPP, Trasadingen Switzerland). The cells were harvested with Cell Dissociation Solution (10 mL per large flask and 5 mL per medium flask) (Sigma-aldrich, Saint Louis, Mo.) and transferred to the 50 mL tubes containing the supernatant. The cells were centrifuged for 5 minutes at 300 G at 20° C. and resuspended in 5 mL of PBS (without Mg^2+ and Ca^2+). […]
# [3] = regular conjugate 25 mg, 10×10^6 cells, 1.5 hours
# [4] = reaction 2, regular conjugate 20 mg, 5×10^6 cells, 1.5 hours, after washing once
# [5] = reaction 3, regular conjugate 15 mg
# [6] = reaction 4, regular conjugate 10 mg
# [7] = reaction 5, regular conjugate 5 mg
# [8] = reaction 6, regular conjugate 1 mg
# [9] = reaction 7, regular conjugate 100 μg
# [10] = reaction 8, regular conjugate 10 μg
# [11] = radioactive labelled conjugate 0.1 mg
# [12] = radioactive labelled conjugate 1 mg
# [13] = radioactive labelled conjugate 5 mg, cells from supernatant only
# [14] = radioactive labelled conjugate 25 mg, attached cells only
# [15] = reaction C, radioactive labelled conjugate 20 mg, 10×10^6 cells, 1.5 hours, after washing 4 times
# [16] = reaction D, radioactive labelled conjugate 15 mg
# [17] = reaction E, radioactive labelled conjugate 10 mg
# [18] = reaction F, radioactive labelled conjugate 5 mg
# [19] = reaction G, radioactive labelled conjugate 1 mg
# [20] = reaction H, radioactive labelled conjugate 100 μg
# [21] = reaction I, radioactive labelled conjugate 10 μg
# [22] = reaction J, radioactive labelled conjugate 1 μg
compound,measurement,setting,value
"O=C1N[C@@H]2O[C@H](CO)[C@@H](O[C@@H]3O[C@H](CO)[C@H](O)[C@H](O[C@H]4O[C@H](CO)[C@H](O)[C@H](O)[C@H]4O)[C@H]3O)[C@H](O)[C@H]2O1 [Compound 9, alpha-Gal trisaccharide-carbamate]",Cell concentration,B16.BL6 melanoma cells [1]; regular conjugate 0.1 mg,7.4 × 10^5
same,Cells harvested,B16.BL6 melanoma cells [1]; regular conjugate 0.1 mg,3.7 × 10^6
same,Cells harvested (percent),B16.BL6 melanoma cells [1]; regular conjugate 0.1 mg,37%
same,Viability,B16.BL6 melanoma cells [1]; regular conjugate 0.1 mg,67.6%
same,Cell concentration,B16.BL6 melanoma cells [1]; regular conjugate 1 mg,13.4 × 10^5
same,Cells harvested,B16.BL6 melanoma cells [1]; regular conjugate 1 mg,6.7 × 10^6
same,Cells harvested (percent),B16.BL6 melanoma cells [1]; regular conjugate 1 mg,67%
same,Viability,B16.BL6 melanoma cells [1]; regular conjugate 1 mg,79.1%
same,Cell concentration,B16.BL6 melanoma cells [1]; regular conjugate 5 mg,7.0 × 10^5
same,Cells harvested,B16.BL6 melanoma cells [1]; regular conjugate 5 mg,3.5 × 10^6
same,Cells harvested (percent),B16.BL6 melanoma cells [1]; regular conjugate 5 mg,35%
same,Viability,B16.BL6 melanoma cells [1]; regular conjugate 5 mg,91.4%
same,Cell concentration,B16.BL6 melanoma cells [1]; [3],9.0 × 10^5
same,Cells harvested,B16.BL6 melanoma cells [1]; [3],4.5 × 10^6
same,Cells harvested (percent),B16.BL6 melanoma cells [1]; [3],45%
same,Viability,B16.BL6 melanoma cells [1]; [3],77.8%
same,Cell concentration,B16.BL6 melanoma cells [2]; [4],4.2 × 10^5 cells/mL
same,Cells harvested,B16.BL6 melanoma cells [2]; [4],1.1 × 10^6
same,Cells harvested (percent),B16.BL6 melanoma cells [2]; [4],21%
same,Viability,B16.BL6 melanoma cells [2]; [4],85.7%
same,Cell concentration,B16.BL6 melanoma cells [2]; [5],6.0 × 10^5 cells/mL
same,Cells harvested,B16.BL6 melanoma cells [2]; [5],1.5 × 10^6
same,Cells harvested (percent),B16.BL6 melanoma cells [2]; [5],30%
same,Viability,B16.BL6 melanoma cells [2]; [5],80.0%
same,Cell concentration,B16.BL6 melanoma cells [2]; [6],2.8 × 10^5 cells/mL
same,Cells harvested,B16.BL6 melanoma cells [2]; [6],0.7 × 10^6
same,Cells harvested (percent),B16.BL6 melanoma cells [2]; [6],14%
same,Viability,B16.BL6 melanoma cells [2]; [6],71.4%
same,Cell concentration,B16.BL6 melanoma cells [2]; [7],4.4 × 10^5 cells/mL
same,Cells harvested,B16.BL6 melanoma cells [2]; [7],1.1 × 10^6
same,Cells harvested (percent),B16.BL6 melanoma cells [2]; [7],22%
same,Viability,B16.BL6 melanoma cells [2]; [7],81.8%
same,Cell concentration,B16.BL6 melanoma cells [2]; [8],4.2 × 10^5 cells/mL
same,Cells harvested,B16.BL6 melanoma cells [2]; [8],1.1 × 10^6
same,Cells harvested (percent),B16.BL6 melanoma cells [2]; [8],21%
same,Viability,B16.BL6 melanoma cells [2]; [8],66.7%
same,Cell concentration,B16.BL6 melanoma cells [2]; [9],6.0 × 10^5 cells/mL
same,Cells harvested,B16.BL6 melanoma cells [2]; [9],1.5 × 10^6
same,Cells harvested (percent),B16.BL6 melanoma cells [2]; [9],30%
same,Viability,B16.BL6 melanoma cells [2]; [9],60.1%
same,Cell concentration,B16.BL6 melanoma cells [2]; [10],4.2 × 10^5 cells/mL
same,Cells harvested,B16.BL6 melanoma cells [2]; [10],1.1 × 10^6
same,Cells harvested (percent),B16.BL6 melanoma cells [2]; [10],21%
same,Viability,B16.BL6 melanoma cells [2]; [10],57.1%
O=[13C]1N[C@@H]2O[C@H](CO)[C@@H](O[C@@H]3O[C@H](CO)[C@H](O)[C@H](O[C@H]4O[C@H](CO)[C@H](O)[C@H](O)[C@H]4O)[C@H]3O)[C@H](O)[C@H]2O1 [radioactive labelled conjugate],Cell concentration,B16.BL6 melanoma cells [1]; [11],13.8 × 10^5
same,Cells harvested,B16.BL6 melanoma cells [1]; [11],6.9 × 10^6
same,Cells harvested (percent),B16.BL6 melanoma cells [1]; [11],69%
same,Viability,B16.BL6 melanoma cells [1]; [11],91.3%
same,Cell concentration,B16.BL6 melanoma cells [1]; [12],14.8 × 10^5
same,Cells harvested,B16.BL6 melanoma cells [1]; [12],7.4 × 10^6
same,Cells harvested (percent),B16.BL6 melanoma cells [1]; [12],74%
same,Viability,B16.BL6 melanoma cells [1]; [12],93.2%
same,Cell concentration,B16.BL6 melanoma cells [1]; [13],10.8 × 10^5
same,Cells harvested,B16.BL6 melanoma cells [1]; [13],5.4 × 10^6
same,Cells harvested (percent),B16.BL6 melanoma cells [1]; [13],54%
same,Viability,B16.BL6 melanoma cells [1]; [13],81.5%
same,Cell concentration,B16.BL6 melanoma cells [1]; [14],2.0 × 10^5
same,Cells harvested,B16.BL6 melanoma cells [1]; [14],1.0 × 10^6
same,Cells harvested (percent),B16.BL6 melanoma cells [1]; [14],10%
same,Viability,B16.BL6 melanoma cells [1]; [14],90.0%
same,Cell concentration,B16.BL6 melanoma cells [2]; [15],6.1 × 10^6 cells/mL
same,Cells harvested,B16.BL6 melanoma cells [2]; [15],2.7 × 10^6
same,Cells harvested (percent),B16.BL6 melanoma cells [2]; [15],27.5%
same,Viability,B16.BL6 melanoma cells [2]; [15],82.0%
same,Cell concentration,B16.BL6 melanoma cells [2]; [16],4.3 × 10^6 cells/mL
same,Cells harvested,B16.BL6 melanoma cells [2]; [16],1.9 × 10^6
same,Cells harvested (percent),B16.BL6 melanoma cells [2]; [16],19.4%
same,Viability,B16.BL6 melanoma cells [2]; [16],88.9%
same,Cell concentration,B16.BL6 melanoma cells [2]; [17],12 × 10^6 cells/mL
same,Cells harvested,B16.BL6 melanoma cells [2]; [17],5.4 × 10^6
same,Cells harvested (percent),B16.BL6 melanoma cells [2]; [17],54.0%
same,Viability,B16.BL6 melanoma cells [2]; [17],86.7%
same,Cell concentration,B16.BL6 melanoma cells [2]; [18],5.2 × 10^6 cells/mL
same,Cells harvested,B16.BL6 melanoma cells [2]; [18],2.3 × 10^6
same,Cells harvested (percent),B16.BL6 melanoma cells [2]; [18],23.4%
same,Viability,B16.BL6 melanoma cells [2]; [18],82.7%
same,Cell concentration,B16.BL6 melanoma cells [2]; [19],5.9 × 10^6 cells/mL
same,Cells harvested,B16.BL6 melanoma cells [2]; [19],2.7 × 10^6
same,Cells harvested (percent),B16.BL6 melanoma cells [2]; [19],26.6%
same,Viability,B16.BL6 melanoma cells [2]; [19],91.5%
same,Cell concentration,B16.BL6 melanoma cells [2]; [20],3.8 × 10^6 cells/mL
same,Cells harvested,B16.BL6 melanoma cells [2]; [20],1.7 × 10^6
same,Cells harvested (percent),B16.BL6 melanoma cells [2]; [20],17.1%
same,Viability,B16.BL6 melanoma cells [2]; [20],81.6%
same,Cell concentration,B16.BL6 melanoma cells [2]; [21],6.2 × 10^6 cells/mL
same,Cells harvested,B16.BL6 melanoma cells [2]; [21],2.8 × 10^6
same,Cells harvested (percent),B16.BL6 melanoma cells [2]; [21],27.9%
same,Viability,B16.BL6 melanoma cells [2]; [21],82.3%
same,Cell concentration,B16.BL6 melanoma cells [2]; [22],5.0 × 10^6 cells/mL
same,Cells harvested,B16.BL6 melanoma cells [2]; [22],2.3 × 10^6
same,Cells harvested (percent),B16.BL6 melanoma cells [2]; [22],22.5%
same,Viability,B16.BL6 melanoma cells [2]; [22],84.0%
